Here are results for three compounds from US4766127A, “2-(3-pyridylmethyl)naphthalene-6-carboxylic acid as a thromboxane synthetase inhibitor” (Syntex (U.S.A.) Inc., priority 1987, dated 1988).

Values joined by “and” are separate entries in the source; they are usually repeats but may differ in a detail not shown here. Equal values may be shown once.

One experiment concerns prostacyclin. Conditions: background statement; PGH2 diversion to PGI2 when TxA2 synthesis is blocked; cited from earlier work.
In the next experiment the target is T1, Thromboxane Synthetase (Homo sapiens, UniProt P24557).
T1 construct: Human platelet-rich plasma preparation; endogenous in cells; host or cells: human platelets in citrated platelet-rich plasma
T1 sequence (P24557 1-533): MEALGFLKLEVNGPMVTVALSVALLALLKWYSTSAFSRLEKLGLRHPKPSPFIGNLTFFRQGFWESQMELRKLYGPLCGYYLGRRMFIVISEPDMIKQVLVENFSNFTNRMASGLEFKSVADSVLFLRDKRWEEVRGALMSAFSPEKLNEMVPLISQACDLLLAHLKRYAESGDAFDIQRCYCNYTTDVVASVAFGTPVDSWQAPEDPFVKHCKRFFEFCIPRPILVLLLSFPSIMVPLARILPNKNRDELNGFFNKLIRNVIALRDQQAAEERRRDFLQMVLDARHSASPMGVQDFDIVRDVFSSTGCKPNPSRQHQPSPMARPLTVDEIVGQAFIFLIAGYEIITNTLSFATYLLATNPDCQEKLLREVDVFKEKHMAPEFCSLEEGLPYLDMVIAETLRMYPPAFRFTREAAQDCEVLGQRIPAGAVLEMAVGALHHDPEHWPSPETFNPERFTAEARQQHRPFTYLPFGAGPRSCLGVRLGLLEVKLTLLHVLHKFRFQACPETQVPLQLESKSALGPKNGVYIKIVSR
The experiment can be described thus: Inhibition of ADP-induced human platelet aggregation (PRP + pig aortic microsomes) as measure of thromboxane synthetase inhibition. Format: cell-based. How it is done: Platelet Aggregation Inhibition
Comparison of 2-(3-pyridylmethyl)naphthalene-6-carboxylic acid and 2-(3-pyridylmethyl)naphthalene-7-carboxylic acid.
Platelet Aggregation Inducer: ADP
Determination of Inhibition and Thromboxane Synthetase Activity Utilizing Human Platelet Aggregation
Human platelet-rich plasma preparation:
Blood sample is collected into siliconized vacutainers containing sodium citrate (0.5 ml of 11.25% sodium citrate per 15 ml vacutainer) final concentration 0.38%. Platelet rich plasma (PRP) is obtained after centrifuging the blood for 15 minutes at 200 xg at room temperature. Blood and plasma contacts only non-wettable plastic or siliconized glass surfaces. Procedure:
1. Aggregation is followed by the turbidimetric method of Born (J. Physiol. 162, 67p, 1962), using a Payton Dual Channel Aggregometer.
2. PRP-PAM control. 1.0 ml PRP is used. Pig aortic microsomes (PAM), prepared according to Neichi, et al. (Prostaglandins, 19(4), 577-86 (1980)), are incubated in PRP at 37° C. with stirring for 3 minutes, immediately followed by addition of inducer-ADP. The concentration of PAM is chosen to show little or no inhibition of platelet aggregation when compared with the aggregation of PRP alone.
3. PRP-PAM plus thromboxane synthetase inhibitor.
Thromboxane synthetase inhibitor is added to 1.0 ml PRP incubated at 37° C. with stirring for two minutes. The PAM concentration is chosen according to step 2, and is added to PRP incubated at 37° C. with stirring for another 3 minutes. The inducer ADP is added immediately afterwards.

Setting [1] is: 1 × 10^-4 M, inducer ADP 5×10^-6 M, solvent water.
[2] abbreviates: 2 × 10^-5 M, inducer ADP 5×10^-6 M, solvent water.
Setting [3] is: 5 × 10^-4 M, inducer ADP 5×10^-6 M, solvent water.
Where [4] appears, read: 5 × 10^-6 M, inducer ADP 5×10^-6 M, solvent water.
Where [5] appears, read: 1.0 × 10^-7 M, inducer ADP 5×10^-6 M, solvent water.
The mark [6] stands for this setting: 5.0 × 10^-5 M, inducer ADP 5×10^-6 M, solvent water.
The mark [7] stands for this setting: 5.0 × 10^-7 M, inducer ADP 5×10^-6 M, solvent water.

On to `O=C(O)c1ccc(OCCn2ccnc2)cc1` [dazoxiben], for which the “levels of prostacyclin produced” value in the experiment with prostacyclin is recorded as “quite low”.
A word on the inhibition: it is the share of the control response that was lost under treatment. A word on the IC50: it is the concentration that gives 50% inhibition. With `O=C(O)c1ccc2ccc(Cc3cccnc3)cc2c1` [2-(3-pyridylmethyl)naphthalene-7-carboxylic acid, reference compound], the inhibition at 100 µM on Thromboxane Synthetase (setting [1]) was 88.8%. The inhibition at 20 µM on Thromboxane Synthetase (setting [2]) came out at 47.9%. The inhibition at 500 µM on Thromboxane Synthetase (setting [3]) was 92.8%. Besides, the inhibition at 5 µM on Thromboxane Synthetase (setting [4]) came to 18.2%. Also, the concentration for half-maximal inhibition (IC50) at Thromboxane Synthetase (platelet aggregation inhibition, inducer ADP 5×10^-6 M, solvent water) amounted to 21 µM.
As usually defined, the % Inhibition is the relative decrease from the control value, in per cent. On to `O=C(O)c1ccc2cc(Cc3cccnc3)ccc2c1` [2-(3-pyridylmethyl)naphthalene-6-carboxylic acid], for which, at Thromboxane Synthetase (setting [1]), the “% Inhibition” value was 85.2% and the inhibition at 100 µM is 98.3%. On Thromboxane Synthetase (setting [5]), the “% Inhibition” value came to 29.3 ± 3.7% and the inhibition at 0.1 µM came out at 47 ± 5.2%. At Thromboxane Synthetase (1.0 × 10^-8 M, inducer ADP 5×10^-6 M, solvent water), the inhibition at 0.01 µM amounted to 4.7%. At Thromboxane Synthetase (setting [2]), the “% Inhibition” value is 97.4 ± 1.3% and the inhibition at 20 µM was 90.9 ± 1.3%. Moreover, the “% Inhibition” value at Thromboxane Synthetase (2 × 10^-7 M, inducer ADP 5×10^-6 M, solvent water) is 58.7 ± 9.2% and 97.1 ± 1.9%. The inhibition at 0.02 µM at Thromboxane Synthetase (2.0 × 10^-8 M, inducer ADP 5×10^-6 M, solvent water) turned out to be 1.6%. Further, on Thromboxane Synthetase (setting [3]), the “% Inhibition” value was 87.3% and the inhibition at 500 µM was 96.6%. Further, on Thromboxane Synthetase (setting [6]), the “% Inhibition” value came to 86.5 ± 2.2% and the inhibition at 50 µM turned out to be 86.8 ± 1.8%. On Thromboxane Synthetase (setting [4]), the “% Inhibition” value is 100.0% and 85.1 ± 4.1% and 85.3 ± 5.5%; the inhibition at 5 µM amounted to 88.7 ± 3.5%. At Thromboxane Synthetase (setting [7]), the “% Inhibition” value is listed as 75.8 ± 3.5% and the inhibition at 0.5 µM was 78.3%. For the same compound, at Thromboxane Synthetase (factor relative to 2-(3-pyridylmethyl)-naphthalene-7-carboxylic acid), the “greater activity as a thromboxane synthetase inhibitor by a factor” value is “about 200”.
